# Experimental data as given in patent publication US6548553B2, “Styryl sulfone anticancer agents” (Temple University-of the Commonwealth System of Higher …, priority 1997, dated 2003).
# Key:
# [1] = tested on: LnCaP, BT-20 and MCF-7 cells; assay: Trypan blue exclusion viability/proliferation assay (dose and time course); assay type: cell-based
# Experimental: (§1) The effect of the styryl sulfones on the growth of normal and tumor cells of breast and prostate was examine utilizing four cell lines, NIH3T3, MCF-7, BT-20 and LnCap. NIH/3T3 cells represent normal fibroblasts while LnCap is an androgen-dependent prostate tumor cell line. MCF-7 is an estrogen-responsive breast tumor cell line, while BT-20 is an estrogen-unresponsive breast tumor cell line. MCF-7 and BT-20 were grown in Dulbecco's modified Eagle's medium (DMEM) containing 10% fetal bovine serum supplemented with penicillin and streptomycin. LnCaP were cultured in RPMI with 10% fetal bovine serum containing penicillin and streptomycin. NIH3T3 cells were grown in DMEM containing 10% calf serum supplemented with penicillin and streptomycin. All cell cultures were maintained at 37° C. in a humidified atmosphere of 5% CO2.
# (§2) The compounds identified in Tables 2, 3 and 4 inhibited cell growth and induced cell death, to varying degrees. The tables list the percent viable LnCap and MCF-7 cells treated with 5.0 μM compound.
# (§3) NIH3T3, MCF-7, BT-20 and LnCaP cells were treated with FRI-20 dissolved in DMSO to concentrations of 250 nM, 500 nM, 1 μM, 2.5 μM and 5 μM and examined for their proliferation and viability after 48 hours (FIG. 2A). The percentage of living cells was determined by Trypan blue exclusion. The control cells were treated with DMSO to determine the effect of solvent on cells. […] Under these conditions, only 2-3% of NIH3T3 cells were non-viable at both the concentrations. […] After 48 hours incubation, 60-75% of the LnCaP, BT-20 and MCF-7 cells were dead at […] FRI-20 concentration, whereas more than 90% of NIH3T3 cells were viable (FIG. 2A).
# NIH/3T3, MCF-7, BT-20 and LnCap were treated with FRI-20 at 2.5 μM and the number of viable cells was determined at 12, 24, 48 and 72 hours by Trypan blue exclusion.
# [2] = tested on: LnCaP and MCF-7 cells; assay: Trypan blue exclusion viability assay, Tables 2-4; assay type: cell-based; conditions: 5.0 μM compound, 48 hours; for viability at 5 µM: read-out: % viable LnCaP and MCF-7 cells
# Experimental: as §1
# as §2, with “Cells were treated with test compound at 2.5 μM or 5.0 μM concentration and cell viability was determined after 48 hours by the Trypan blue exclusion method. The compounds” for “The compounds”
# [3] = tested on: DLD-1; assay: GI50 growth inhibition, trypan blue cell count; assay type: cell-based, human; conditions: cob-rectal, 96 hours after addition
# Experimental: (§4) The human carcinoma cell lines listed in Table 5 below were purchased from ATCC and grown in an appropriate growth medium containing 10% fetal bovine serum (FBS) and antibiotics. The cells were plated at a cell density of 1.0×10^5 cells per […] in 6-well dishes. The cells were treated with various concentrations of (E)-fluorostyryl-4-bromobenzylsulfone 24 hours after plating in a total volume of 1 ml of medium using dimethylsulfoxide (DMSO) as a solvent for the compound. Control cells were treated with DMSO alone. The total number of viable cells was determined 96 hours after the addition of the compound by counting the cells in each well using a hemacytometer after trypan blue staining (viable cells exclude the stain). The counts were done in duplicate and the average was graphed in FIG. 8 as a percentage of the non-treated control group.
# [4] = tested on: DU145; assay: GI50 growth inhibition, trypan blue cell count; assay type: cell-based, human; conditions: prostate, androgen receptor negative, 96 hours after addition
# Experimental: as §4
# [5] = tested on: U87; assay: GI50 growth inhibition, trypan blue cell count; assay type: cell-based, human; conditions: glioblastoma, 96 hours after addition
# Experimental: as §4
# [6] = tested on: BT20; assay: GI50 growth inhibition, trypan blue cell count; assay type: cell-based, human; conditions: breast, estrogen receptor negative, 96 hours after addition
# Experimental: as §4
# [7] = tested on: H157; assay: GI50 growth inhibition, trypan blue cell count; assay type: cell-based, human; conditions: lung, non-small cell, 96 hours after addition
# Experimental: as §4
# [8] = tested on: MIA-PaCa-2; assay: GI50 growth inhibition, trypan blue cell count; assay type: cell-based, human; conditions: pancreatic, 96 hours after addition
# Experimental: as §4
# [9] = Trypan blue exclusion viability assay, normal fibroblasts; assay type: cell-based; set-up: viability at 48 h: dose or concentration left out as unconfirmed; conditions: mouse, NIH3T3 cells (normal fibroblasts); for viability at 48 h: 48 hours incubation, read-out: viable NIH3T3 cells
# Experimental: as §1, §2
# as §3, with “The” for “NIH3T3, MCF-7, BT-20 and LnCaP cells were treated with FRI-20 dissolved in DMSO to concentrations of 250 nM, 500 nM, 1 μM, 2.5 μM and 5 μM and examined for their proliferation and viability after 48 hours (FIG. 2A). The”
# [10] = tested on: LnCaP, BT-20 and MCF-7 cells; assay: Trypan blue exclusion viability/proliferation assay (dose and time course); assay type: cell-based; conditions: 2.5 mM (FIG. 1A) and 5.0 mM (FIG. 1B), 48 hours of treatment
# [11] = tested on: SK-MEL-28; assay: GI50 growth inhibition, trypan blue cell count; assay type: cell-based; conditions: Homo sapiens, melanoma, 96 hours after addition
# Experimental: as §4
# [12] = tested on: LnCaP cells; assay: Comparison with cisplatin, Trypan blue viability after 72 hours; assay type: cell-based; conditions: LnCaP, 72 hours, Trypan blue exclusion
# Experimental: (§5) The killing effect of FR-20 on androgen-sensitive (LnCaP) and androgen insensitive (DU145) prostate tumor cells was compared to the effect of cisplatin (cis-diamminedichloroplatinum II), a widely used anti-prostate cancer agent. The cells were grown as in Example 26. FRI-20 or cisplatin was dissolved in DMSO and added to the cells at various concentrations. Viability was determined after 72 hours by the Trypan blue exclusion method. The concentration of FRI-20 required to completely kill LnCaP and DU145 cells was 2.5 μM and 5.0 μM, respectively. Under identical conditions, complete killing of LnCaP and DU145 cells by cisplatin required 25 μM and 15 μM concentrations, respectively.
# [13] = tested on: DU145 cells; assay: as above; assay type: cell-based; conditions: DU145, 72 hours, Trypan blue exclusion
# Experimental: as §5
compound,measurement,setting,value
"O=S(=O)(/C=C/c1ccc(Br)cc1)Cc1ccc(Cl)cc1 [Example 19, E-4-bromostyryl 4-chlorobenzyl Sulfone]",activity (growth inhibition and cell death),[1],highly active
same,viability at 5 µM,[2],20%
"O=S(=O)(/C=C/c1ccc(Cl)cc1)Cc1ccccc1 [Example 10, E-4-chlorostyryl Benzyl Sulfone]",viability at 5 µM,[2],87%
O=C(C(=Cc1ccc(F)cc1)S(=O)(=O)c1ccccc1Cl)c1ccccc1 [Example 24],% viable LnCaP and MCF-7 cells,[2],64%
"O=S(=O)(/C=C\c1ccccc1)/C=C/c1ccc(Cl)cc1 [Example 22, (Z)-styryl-(E)-4-chlorostyryl Sulfone]",viability at 5 µM,[2],72%
"O=S(=O)(/C=C/c1ccc(Cl)cc1Cl)c1ccccc1 [Example 3, E-2,4-dichlorostyryl Phenyl Sulfone]",viability at 5 µM,[2],88%
"O=S(=O)(/C=C\c1ccccc1)/C=C/c1ccc(Br)cc1 [Example 21, (Z)-styryl-(E)-4-bromostyryl Sulfone]",viability at 5 µM,[2],68%
"O=C(C(=Cc1ccc(Br)cc1)S(=O)(=O)c1ccccc1[N+](=O)[O-])c1ccccc1 [Example 27, 2-[(2-nitrophenyl)sulfonyl]-1-phenyl-3-(4-bromophenyl)-2-propen-1-one]",viability at 5 µM,[2],74%
"O=S(=O)(/C=C/c1ccccc1Cl)Cc1ccccc1 [Example 9, E-2-chlorostyryl Benzyl Sulfone]",viability at 5 µM,[2],94%
"O=C(C(=Cc1ccc(Br)cc1)S(=O)(=O)c1ccc(Cl)cc1)c1ccccc1 [Example 26, 2-[(4-chlorophenyl)sulfonyl]-1-phenyl-3-(4-bromophenyl)-2-propen-1-one]",viability at 5 µM,[2],58%
"O=S(=O)(/C=C/c1ccc(Br)cc1)c1ccccc1 [Example 4, E-4-bromostyryl Phenyl Sulfone]",viability at 5 µM,[2],68%
"O=S(=O)(/C=C/c1ccc(F)cc1)Cc1ccc(Br)cc1 [Example 15, E-4-fluorostyryl 4-bromobenzyl Sulfone]",GI50,"[3]; Homo sapiens, DLD-1",< 1000 nM
same,GI50,"[4]; Homo sapiens, DU-145",2500 nM
same,GI50,"[5]; Homo sapiens, U-87 MG",1000 to 2000 nM
same,GI50,"[6]; Homo sapiens, BT-20",1000 to 2000 nM
same,GI50,"[7]; Homo sapiens, NCI-H157",< 1000 nM
same,GI50,"[8]; Homo sapiens, MIA PaCa-2",< 1000 nM
same,"viability at 48 h, 5 µM",[9],> 80%
same,viability at 48 h,[9],> 80%
same,"inhibition of growth and induction of death of LnCaP, BT-20 and MCF-7 cells",[10],substantially inhibit the growth and induce the death
same,GI50,[11],1000 to 2000 nM
same,viability at 5 µM,[2],7%
"O=S(=O)(/C=C/c1ccc(Br)cc1)Cc1ccc(Br)cc1 [Example 16, E-4-bromostyryl 4-bromobenzyl Sulfone]",viability at 5 µM,[2],51%
"Cc1ccc(/C=C/S(=O)(=O)c2ccc(Cl)cc2)cc1 [Example 6, E-4-methylstyryl 4-chlorophenyl Sulfone]",viability at 5 µM,[2],92%
"O=S(=O)(/C=C/c1ccc(Br)cc1)Cc1ccc(F)cc1 [Example 17, E-4-bromostyryl 4-fluorobenzyl Sulfone]","viability at 48 h, 5 µM",[9],> 80%
same,viability at 48 h,[9],> 80%
same,"inhibition of growth and induction of death of LnCaP, BT-20 and MCF-7 cells",[10],substantially inhibit the growth and induce the death
same,viability at 5 µM,[2],42%
"COc1ccc(/C=C/S(=O)(=O)c2ccc(Cl)cc2)cc1 [Example 7, E-4-methoxystyryl 4-chlorophenyl Sulfone]",viability at 5 µM,[2],90%
"O=S(=O)(/C=C/c1ccc(F)cc1F)Cc1ccc(F)cc1 [Example 14, E-2,4-difluorostyryl 4-fluorobenzyl Sulfone]","viability at 48 h, 5 µM",[9],> 80%
same,viability at 48 h,[9],> 80%
same,"inhibition of growth and induction of death of LnCaP, BT-20 and MCF-7 cells",[10],substantially inhibit the growth and induce the death
same,viability at 5 µM,[2],56%
"O=S(=O)(/C=C/c1ccc(Cl)cc1)Cc1ccc(Cl)cc1 [Example 12, E-4-chlorostyryl 4-chlorobenzyl Sulfone]","viability at 48 h, 5 µM",[9],> 80%
same,viability at 48 h,[9],> 80%
same,"inhibition of growth and induction of death of LnCaP, BT-20 and MCF-7 cells",[10],substantially inhibit the growth and induce the death
same,viability at 5 µM,[2],49%
"O=S(=O)(/C=C/c1ccc(F)cc1)Cc1ccc(F)cc1 [Example 13, E-4-fluorostyryl 4-fluorobenzyl Sulfone]",viability at 5 µM,[2],43%
"N.N.[Cl][Pt][Cl] [cisplatin, cis-diamminedichloroplatinum II, reference compound]",concentration required to completely kill cells,[12],25 µM
same,concentration required to completely kill cells,[13],15 µM
"O=C(C(=Cc1ccc(F)cc1)S(=O)(=O)c1ccc(F)cc1)c1ccccc1 [Example 23, 2-[(4-fluorophenyl)sulfonyl]-1-phenyl-3-(4-fluorophenyl)-2-propen-1-one]",viability at 5 µM,[2],76%
"O=S(=O)(/C=C/c1ccccc1)c1ccccc1 [Example 1, E-styryl Phenyl Sulfone]",viability at 5 µM,[2],89%
"O=S(=O)(/C=C/c1ccc(F)cc1Cl)Cc1ccc(Cl)cc1 [Example 36, E-(2)-chloro-4-fluorostyryl-4-chlorobenzylsulfone]",GI50,[3],800 nM
same,GI50,[4],2000 nM
same,GI50,[5],1800 nM
same,GI50,[6],900 nM
same,GI50,[7],1500 nM
same,GI50,[8],1000 nM
"O=S(=O)(/C=C\c1ccccc1)/C=C/c1ccc(F)cc1 [Example 20, (Z)-styryl-(E)-4-fluorostyryl Sulfone]",viability at 5 µM,[2],76%
"O=C(C(=Cc1ccc(Br)cc1)S(=O)(=O)c1ccccc1Cl)c1ccccc1 [Example 25, 2-[(2-chlorophenyl)sulfonyl]-1-phenyl-3-(4-bromophenyl)-2-propen-1-one]",viability at 5 µM,[2],72%
"O=S(=O)(/C=C/c1ccc(Cl)cc1)c1ccc(Cl)cc1 [Example 5, E-4-chlorostyryl 4-chlorophenyl Sulfone]",viability at 5 µM,[2],64%
"O=S(=O)(/C=C/c1ccc(Cl)cc1)Cc1ccc(Br)cc1 [Example 18, E-4-chlorostyryl 4-bromobenzyl Sulfone]",activity (growth inhibition and cell death),[1],highly active
same,viability at 5 µM,[2],7%
"O=S(=O)(/C=C/c1ccc(Cl)cc1)c1ccccc1 [Example 2, E-4-chlorostyryl Phenyl Sulfone]",viability at 5 µM,[2],90%
"O=S(=O)(/C=C/c1ccc(Br)cc1)c1ccc(Cl)cc1 [Example 8, E-4-bromostyryl 4-chlorophenyl Sulfone]",viability at 5 µM,[2],69%
